Measured values from ChEMBL document CHEMBL3272295, “Drugs derived from cannabinoids. 5. delta6a,10a-Tetrahydrocannabinol and heterocyclic analogs containing aromatic side chains” (J Med Chem, 1976).

Columns and labels:
Rattus norvegicus [1] = test: Antianxiety activity in Long-Evans rat assessed as reduction in motor activity at 10 mg/kg, po after 2 hrs relative to vehicle-treated control; format: functional; parameters: scale not given: the % may be the effect or the level left
Rattus norvegicus [2] = test: Antihypertensive activity in spontaneously hypertensive rat model assessed as reduction in blood pressure at 1 mg/kg, po after 24 hrs; format: functional; parameters: scale not given: the % may be the effect or the level left
Mus musculus [3] = test: Analgesic activity in mouse assessed as inhibition of acetic acid-induced writhing at 10 mg/kg, po administered 30 mins prior to acetic acid challenge measured after 5 mins for 20 mins; format: functional
Rattus norvegicus [4] = test: Analgesic activity in Sprague-Dawley rat assessed as increase in pain threshold at 40 mg/kg, po after 15 to 90 mins by tail flick test; format: functional
Rattus norvegicus [5] = test: Antihypertensive activity in spontaneously hypertensive rat model assessed as reduction in blood pressure at 3 mg/kg, po after 3 hrs; format: functional; parameters: scale not given: the % may be the effect or the level left
Rattus norvegicus [6] = test: Antipsychotic activity in rat assessed as reduction of methamphetamine-induced hyperactivity at 5 mg/kg, po administered prior to methamphetamine challenge relative to vehicle-treated control; format: functional; parameters: scale not given: the % may be the effect or the level left
Rattus norvegicus [7] = test: Antihypertensive activity in spontaneously hypertensive rat model assessed as reduction in blood pressure at 3 mg/kg, po after 24 hrs; format: functional; parameters: scale not given: the % may be the effect or the level left
[8] = Acute toxicity in po dosed mouse; format: organism-based; conditions: in vivo
Rattus norvegicus [9] = test: Antihypertensive activity in spontaneously hypertensive rat model assessed as reduction in blood pressure at 1 mg/kg, po after 3 hrs; format: functional; parameters: scale not given: the % may be the effect or the level left
Rattus norvegicus [10] = test: Antipsychotic activity in rat assessed as reduction of methamphetamine-induced hyperactivity at 20 mg/kg, po administered prior to methamphetamine challenge relative to vehicle-treated control; format: functional; parameters: scale not given: the % may be the effect or the level left
Mus musculus [11] = test: Antianxiety activity in albino BALB/cJ mouse assessed as reduction in footshock-induced fighting behavior at 5 mg/kg, po after 30 to 90 mins; format: functional; parameters: scale not given: the % may be the effect or the level left
Rattus norvegicus [12] = test: Antipsychotic activity in rat assessed as reduction of methamphetamine-induced hyperactivity at 10 mg/kg, po administered prior to methamphetamine challenge relative to vehicle-treated control; format: functional; parameters: scale not given: the % may be the effect or the level left
Mus musculus [13] = test: Analgesic activity in po dosed mouse assessed as inhibition of acetic acid-induced writhing administered 30 mins prior to acetic acid challenge measured after 5 mins for 20 mins; format: functional
Rattus norvegicus [14] = test: Analgesic activity in Sprague-Dawley rat assessed as increase in pain threshold at 20 mg/kg, po after 15 to 90 mins by tail flick test; format: functional
Rattus norvegicus [15] = test: Antianxiety activity in Long-Evans rat assessed as reduction in motor activity at 40 mg/kg, po after 2 hrs relative to vehicle-treated control; format: functional; parameters: scale not given: the % may be the effect or the level left
Rattus norvegicus [16] = test: Antianxiety activity in Long-Evans rat assessed as reduction in motor activity at 5 mg/kg, po after 2 hrs relative to vehicle-treated control; format: functional; parameters: scale not given: the % may be the effect or the level left
Rhesus monkey = test: Antianxiety activity in po dosed rhesus monkey assessed as antiagressive behavior measured every hour post dosing; format: functional; conditions: Macaca mulatta, read-out: MED
Rattus norvegicus [17] = test: Analgesic activity in Sprague-Dawley rat assessed as increase in pain threshold at 60 mg/kg, po after 15 to 90 mins by tail flick test; format: functional
Rattus norvegicus [18] = test: Increase in pepsin concentration in Sprague-Dawley rat at 10 mg/kg, po administered 30 mins prior to pylorus ligation measured after 4 hrs relative to control; format: functional
Rattus norvegicus [19] = test: Antisecretory activity in Sprague-Dawley rat assessed as decrease in acid output at 10 mg/kg, po administered 30 mins prior to pylorus ligation measured after 4 hrs relative to control; format: functional; parameters: scale not given: the % may be the effect or the level left
Rattus norvegicus [20] = test: Antisecretory activity in Sprague-Dawley rat assessed as decrease in pepsin output at 5 mg/kg, po administered 30 mins prior to pylorus ligation measured after 4 hrs relative to control; format: functional; parameters: scale not given: the % may be the effect or the level left
Rattus norvegicus [21] = test: Antiulcer activity in albino Sprague-Dawley rat stress ulcer model assessed as prevention of stress-induced gastric lesions by measuring ulcer index score at 10 mg/kg, po administered 30 mins prior to stress measured after 4 hrs; format: functional, Stomach
Rattus norvegicus [22] = test: Antisecretory activity in Sprague-Dawley rat assessed as decrease in acidity at 10 mg/kg, po administered 30 mins prior to pylorus ligation measured after 4 hrs relative to control; format: functional; parameters: scale not given: the % may be the effect or the level left
Rattus norvegicus [23] = test: Antisecretory activity in Sprague-Dawley rat assessed as decrease in acidity at 1 mg/kg, po administered 30 mins prior to pylorus ligation measured after 4 hrs relative to control; format: functional; parameters: scale not given: the % may be the effect or the level left
Rattus norvegicus [24] = test: Antisecretory activity in Sprague-Dawley rat assessed as decrease in acid output at 2.5 mg/kg, po administered 30 mins prior to pylorus ligation measured after 4 hrs relative to control; format: functional; parameters: scale not given: the % may be the effect or the level left
Rattus norvegicus [25] = test: Antiulcer activity in albino Sprague-Dawley rat shay ulcer model assessed as ulcer index scores at 10 mg/kg administered intraduodenally post pyloric ligation measured after 18.5 hrs relative to vehicle-treated control; format: functional; conditions: route intraduodenal
Rattus norvegicus [26] = test: Antisecretory activity in Sprague-Dawley rat assessed as decrease in acidity at 5 mg/kg, po administered 30 mins prior to pylorus ligation measured after 4 hrs relative to control; format: functional; parameters: scale not given: the % may be the effect or the level left
Rattus norvegicus [27] = test: Antiulcer activity in albino Sprague-Dawley rat stress ulcer model assessed as prevention of stress-induced gastric lesions at 5 mg/kg, po administered 30 mins prior to stress measured after 4 hrs relative to vehicle-treated control; format: functional, Stomach
Rattus norvegicus [28] = test: Antisecretory activity in Sprague-Dawley rat assessed as decrease in volume at 1 mg/kg, po administered 30 mins prior to pylorus ligation measured after 4 hrs relative to control; format: functional; parameters: scale not given: the % may be the effect or the level left
Rattus norvegicus [29] = test: Antisecretory activity in Sprague-Dawley rat assessed as decrease in volume at 2.5 mg/kg, po administered 30 mins prior to pylorus ligation measured after 4 hrs relative to control; format: functional; parameters: scale not given: the % may be the effect or the level left
Rattus norvegicus [30] = test: Antisecretory activity in Sprague-Dawley rat assessed as decrease in volume at 5 mg/kg, po administered 30 mins prior to pylorus ligation measured after 4 hrs relative to control; format: functional; parameters: scale not given: the % may be the effect or the level left
Rattus norvegicus [31] = test: Increase in pepsin concentration in Sprague-Dawley rat at 5 mg/kg, po administered 30 mins prior to pylorus ligation measured after 4 hrs relative to control; format: functional
Rattus norvegicus [32] = test: Antiulcer activity in albino Sprague-Dawley rat reserpine ulcer model assessed as prevention of reserpine-induced gastric lesions by measuring ulcer index scores at 5 mg/kg, po administered 30 mins prior to reserpine challenge measured after 6 hrs; format: functional, Stomach
Rattus norvegicus [33] = test: Antisecretory activity in Sprague-Dawley rat assessed as decrease in pepsin output at 10 mg/kg, po administered 30 mins prior to pylorus ligation measured after 4 hrs relative to control; format: functional; parameters: scale not given: the % may be the effect or the level left
Rattus norvegicus [34] = test: Antisecretory activity in Sprague-Dawley rat assessed as decrease in pepsin output at 2.5 mg/kg, po administered 30 mins prior to pylorus ligation measured after 4 hrs relative to control; format: functional; parameters: scale not given: the % may be the effect or the level left
Rattus norvegicus [35] = test: Antisecretory activity in Sprague-Dawley rat assessed as decrease in acid output at 5 mg/kg, po administered 30 mins prior to pylorus ligation measured after 4 hrs relative to control; format: functional; parameters: scale not given: the % may be the effect or the level left
Rattus norvegicus [36] = test: Increase in pepsin concentration in Sprague-Dawley rat at 2.5 mg/kg, po administered 30 mins prior to pylorus ligation measured after 4 hrs relative to control; format: functional
Rattus norvegicus [37] = test: Antisecretory activity in Sprague-Dawley rat assessed as decrease in pepsin output at 1 mg/kg, po administered 30 mins prior to pylorus ligation measured after 4 hrs relative to control; format: functional; parameters: scale not given: the % may be the effect or the level left
Rattus norvegicus [38] = test: Antiulcer activity in albino Sprague-Dawley rat shay ulcer model assessed as ulcer index scores at 5 mg/kg administered intraduodenally post pyloric ligation measured after 18.5 hrs relative to vehicle-treated control; format: functional; conditions: route intraduodenal
Rattus norvegicus [39] = test: Antisecretory activity in Sprague-Dawley rat assessed as decrease in acid output at 1 mg/kg, po administered 30 mins prior to pylorus ligation measured after 4 hrs relative to control; format: functional; parameters: scale not given: the % may be the effect or the level left
Rattus norvegicus [40] = test: Antisecretory activity in Sprague-Dawley rat assessed as decrease in acidity at 2.5 mg/kg, po administered 30 mins prior to pylorus ligation measured after 4 hrs relative to control; format: functional; parameters: scale not given: the % may be the effect or the level left
Rattus norvegicus [41] = test: Increase in pepsin concentration in Sprague-Dawley rat at 1 mg/kg, po administered 30 mins prior to pylorus ligation measured after 4 hrs relative to control; format: functional
Rattus norvegicus [42] = test: Antiulcer activity in albino Sprague-Dawley rat reserpine ulcer model assessed as prevention of reserpine-induced gastric lesions by measuring ulcer index scores at 10 mg/kg, po administered 30 mins prior to reserpine challenge measured after 6 hrs; format: functional, Stomach
Rattus norvegicus [43] = test: Antisecretory activity in Sprague-Dawley rat assessed as decrease in volume at 10 mg/kg, po administered 30 mins prior to pylorus ligation measured after 4 hrs relative to control; format: functional; parameters: scale not given: the % may be the effect or the level left

**Q.** Which results are given for CC1CCC2=C(C1)c1c(O)cc(C(C)CCc3ccc(F)cc3)cc1OC2(C)C (stereo not drawn)?
**A.** Activity (Rattus norvegicus [1]): 72%; Activity (Rattus norvegicus [2]): 5%; inhibition in vivo at 10 mg/kg (Mus musculus [3]): 27%; Activity (Rattus norvegicus [4]): 70%; Activity (Rattus norvegicus [5]): 28%; Activity (Rattus norvegicus [6]): 23%; Activity (Rattus norvegicus [7]): 8%; LD50 [8]: ≥ 1000 mg/kg; Activity (Rattus norvegicus [9]): 8%

**Q.** For CN(C)CCCN1c2ccccc2Sc2ccc(Cl)cc21 [CHLORPROMAZINE], which Activity (Rattus norvegicus [1]) is on record?
**A.** 76%

**Q.** What about the Activity (Rattus norvegicus [10]) of the same molecule?
**A.** 93%

**Q.** What about the Activity (Mus musculus [11]) of the same molecule?
**A.** 79%

**Q.** And the Activity (Rattus norvegicus [12])?
**A.** 83%

**Q.** What about the Activity (Rattus norvegicus [6]) of the same molecule?
**A.** 11%

**Q.** What about the ED50 (Mus musculus [13]) of the same molecule?
**A.** 2.4 mg/kg

**Q.** And the Activity (Rattus norvegicus [14])?
**A.** 37%

**Q.** Which results are given for CN1C(=O)CN=C(c2ccccc2)c2cc(Cl)ccc21 [DIAZEPAM]?
**A.** Activity (Mus musculus [11]): 95%; Activity (Rattus norvegicus [15]): 60%; Activity (Rattus norvegicus [16]): 15%; ED50 (Mus musculus [13]): 4 mg/kg; minimal effective dose (Rhesus monkey): 1 mg/kg; Activity (Rattus norvegicus [17]): 64%

**Q.** What does the source list for Cl.NC(=S)Cc1ccccn1?
**A.** Activity (Rattus norvegicus [18]): 45.8%; Activity (Rattus norvegicus [19]): 95.5%; Activity (Rattus norvegicus [20]): 31%; UI (Rattus norvegicus [21]): 0; Activity (Rattus norvegicus [22]): 86.3%; Activity (Rattus norvegicus [23]): 3.8%; Activity (Rattus norvegicus [24]): 47.3%; UI (Rattus norvegicus [25]): 0.7; Activity (Rattus norvegicus [26]): 49.8%; UI (Rattus norvegicus [27]): 0.4; Activity (Rattus norvegicus [28]): 33.1%; Activity (Rattus norvegicus [29]): 35.8%; Activity (Rattus norvegicus [30]): 64%; Activity (Rattus norvegicus [31]): 92.6%; UI (Rattus norvegicus [32]): 0.1; Activity (Rattus norvegicus [33]): 58.9%; Activity (Rattus norvegicus [34]): 8.4%; Activity (Rattus norvegicus [35]): 81.8%; Activity (Rattus norvegicus [36]): 43.1%; Activity (Rattus norvegicus [37]): 19%; UI (Rattus norvegicus [38]): 3.3; Activity (Rattus norvegicus [39]): 35.5%; Activity (Rattus norvegicus [40]): 17.4%; Activity (Rattus norvegicus [41]): 29.3%; UI (Rattus norvegicus [42]): 0; Activity (Rattus norvegicus [43]): 76.7%
